Results from patent US10028966B2 (Avalyn Pharma Inc., priority 2014, dated 2018).

Experiments:
[1] = Stability assessment of pirfenidone formulations at 25°C/60% RH and 40°C/75% RH; format: physicochemical; details: for Measured Pirfenidone / mOsmol/kg / pH: time zero
[2] = in vivo; cited from earlier work
[3] = 25° C./60% RH, target 1 mg/mL, 5 mM phosphate buffer pH 6.5 plus 8% (v/v) EtOH, 16% (v/v) PG
[4] = 25° C./60% RH, target 15 mg/mL, 5 mM phosphate buffer pH 6.5 plus 1% (v/v) EtOH, 2% (v/v) PG
[5] = 25° C./60% RH, target 23 mg/mL, 5 mM phosphate buffer pH 6.5 plus 4% (v/v) EtOH, 8% (v/v) PG
[6] = 25° C./60% RH, target 30 mg/mL, 5 mM phosphate buffer pH 6.5 plus 6% (v/v) EtOH, 12% (v/v) PG
[7] = 25° C./60% RH, target 38 mg/mL, 5 mM phosphate buffer pH 6.5 plus 8% (v/v) EtOH, 16% (v/v) PG
[8] = 40° C./75% RH, target 1 mg/mL, 5 mM phosphate buffer pH 6.5 plus 1% (v/v) EtOH, 2% (v/v) PG
[9] = 40° C./75% RH, target 1 mg/mL, 5 mM phosphate buffer pH 6.5 plus 8% (v/v) EtOH, 16% (v/v) PG
[10] = 40° C./75% RH, target 15 mg/mL, 5 mM phosphate buffer pH 6.5 plus 1% (v/v) EtOH, 2% (v/v) PG
[11] = 40° C./75% RH, target 23 mg/mL, 5 mM phosphate buffer pH 6.5 plus 4% (v/v) EtOH, 8% (v/v) PG
[12] = 40° C./75% RH, target 30 mg/mL, 5 mM phosphate buffer pH 6.5 plus 6% (v/v) EtOH, 12% (v/v) PG
[13] = 40° C./75% RH, target 38 mg/mL, 5 mM phosphate buffer pH 6.5 plus 8% (v/v) EtOH, 16% (v/v) PG
[14] = target 1 mg/mL, 5 mM phosphate buffer pH 6.5 plus 1% (v/v) EtOH, 2% (v/v) PG
[15] = target 1 mg/mL, 5 mM phosphate buffer pH 6.5 plus 8% (v/v) EtOH, 16% (v/v) PG
[16] = target 15 mg/mL, 5 mM phosphate buffer pH 6.5 plus 1% (v/v) EtOH, 2% (v/v) PG
[17] = target 23 mg/mL, 5 mM phosphate buffer pH 6.5 plus 4% (v/v) EtOH, 8% (v/v) PG
[18] = target 30 mg/mL, 5 mM phosphate buffer pH 6.5 plus 6% (v/v) EtOH, 12% (v/v) PG
[19] = target 38 mg/mL, 5 mM phosphate buffer pH 6.5 plus 8% (v/v) EtOH, 16% (v/v) PG

With `Cc1ccc(=O)n(-c2ccccc2)c1` [pirfenidone, 5-methyl-1-phenyl-2-(1H)-pyridone] the “Pirfenidone at Time = 1 month” value [1, 3] was 1.0 mg/mL, the “Pirfenidone at Time = 3 month” value [1, 3] was 1.0 mg/mL and the “Pirfenidone at Time = 6 month” value [1, 3] was 1.0 mg/mL. The “Pirfenidone at Time = 0” value [1, 4] was 16.1 mg/mL, the “Pirfenidone at Time = 1 month” value [1, 4] was 15.1 mg/mL and the “Pirfenidone at Time = 3 month” value [1, 4] was 14.9 mg/mL. The “Pirfenidone at Time = 6 month” value [1, 4] was 15.4 mg/mL, the “Pirfenidone at Time = 0” value [1, 5] was 24.1 mg/mL and the “Pirfenidone at Time = 1 month” value [1, 5] was 22.1 mg/mL. For the same compound, the “Pirfenidone at Time = 3 month” value [1, 5] was 22.3 mg/mL, the “Pirfenidone at Time = 6 month” value [1, 5] was 23.2 mg/mL and the “Pirfenidone at Time = 0” value [1, 6] was 30.3 mg/mL. The “Pirfenidone at Time = 1 month” value [1, 6] was 30.1 mg/mL, the “Pirfenidone at Time = 3 month” value [1, 6] was 29.6 mg/mL and the “Pirfenidone at Time = 6 month” value [1, 6] was 31.0 mg/mL. The “Pirfenidone at Time = 0” value [1, 7] was 38.9 mg/mL, the “Pirfenidone at Time = 1 month” value [1, 7] was 38.3 mg/mL and the “Pirfenidone at Time = 3 month” value [1, 7] was 38.0 mg/mL. The “Pirfenidone at Time = 6 month” value [1, 7] was 39.2 mg/mL, the “Pirfenidone at Time = 0” value [1, 8] was 1.0 mg/mL and the “Pirfenidone at Time = 1 month” value [1, 8] was 1.0 mg/mL. The “Pirfenidone at Time = 3 month” value [1, 8] was 1.0 mg/mL, the “Pirfenidone at Time = 6 month” value [1, 8] was 1.0 mg/mL and the “Pirfenidone at Time = 0” value [1, 9] was 1.0 mg/mL. For the same compound, the “Pirfenidone at Time = 1 month” value [1, 9] was 1.0 mg/mL, the “Pirfenidone at Time = 3 month” value [1, 9] was 1.0 mg/mL and the “Pirfenidone at Time = 6 month” value [1, 9] was 1.0 mg/mL. For the same compound, the “Pirfenidone at Time = 0” value [1, 10] was 16.1 mg/mL, the “Pirfenidone at Time = 1 month” value [1, 10] was 15.1 mg/mL and the “Pirfenidone at Time = 3 month” value [1, 10] was 14.8 mg/mL. The “Pirfenidone at Time = 6 month” value [1, 10] was 15.5 mg/mL, the “Pirfenidone at Time = 0” value [1, 11] was 24.1 mg/mL and the “Pirfenidone at Time = 1 month” value [1, 11] was 22.4 mg/mL. For the same compound, the “Pirfenidone at Time = 3 month” value [1, 11] was 22.1 mg/mL, the “Pirfenidone at Time = 6 month” value [1, 11] was 23.3 mg/mL and the “Pirfenidone at Time = 0” value [1, 12] was 30.3 mg/mL. The “Pirfenidone at Time = 1 month” value [1, 12] was 30.3 mg/mL, the “Pirfenidone at Time = 3 month” value [1, 12] was 30.0 mg/mL and the “Pirfenidone at Time = 6 month” value [1, 12] was 31.1 mg/mL. For the same compound, the “Pirfenidone at Time = 0” value [1, 13] was 38.9 mg/mL, the “Pirfenidone at Time = 1 month” value [1, 13] was 38.4 mg/mL and the “Pirfenidone at Time = 3 month” value [1, 13] was 38.0 mg/mL. The “Pirfenidone at Time = 6 month” value [1, 13] was 37.9 mg/mL, the “Measured Pirfenidone” value [1, 14] was 1.0 mg/mL and the mOsmol/kg [1, 14] was 452 mOsmol/kg. For the same compound, the pH [1, 14] was 6.69, the “Measured Pirfenidone” value [1, 15] was 1.0 mg/mL and the mOsmol/kg [1, 15] was 3590 mOsmol/kg. The pH [1, 15] was 6.98, the “Measured Pirfenidone” value [1, 16] was 16.1 mg/mL and the mOsmol/kg [1, 16] was 512 mOsmol/kg. The pH [1, 16] was 6.65, the “Measured Pirfenidone” value [1, 17] was 24.1 mg/mL and the pH [1, 17] was 6.78. The “Measured Pirfenidone” value [1, 18] was 30.3 mg/mL, the mOsmol/kg [1, 18] was 2863 mOsmol/kg and the pH [1, 18] was 6.90. For the same compound, the “Measured Pirfenidone” value [1, 19] was 38.9 mg/mL, the mOsmol/kg [1, 19] was 3750 mOsmol/kg and the pH [1, 19] was 7.04. The “administered pirfenidone excreted in the urine” value [2] was “about 80%”.
